We go through one molecule from ChEMBL document CHEMBL6096670, “Design, synthesis and biological evaluation of novel β-carbolines as antitumor agents via targeting autophagy in colorectal cancer” (Eur J Med Chem, 2025).

What is called IC50 is the concentration that inhibits the measured activity by half.

One test has as its system BGC-823. Description: Antiproliferative activity against human BGC-823 cells assessed as inhibition of cell growth incubated for 48 hrs by MTT assay. The format is functional, cell-based. To be noted: BGC-823, 48 h.
The test system of a further test is HT-29. Briefly: Antiproliferative activity against human HT-29 cells assessed as inhibition of cell growth incubated for 48 hrs by MTT assay. Format: functional, cell-based. The settings on record: HT-29, 48 h. In general terms: Formazan colour is commonly taken as a measure of viable cells.
A further test concerns CWR22R. Description: Antiproliferative activity against human 22Rv1 cells assessed as inhibition of cell growth incubated for 48 hrs by MTT assay. Format: functional, cell-based. The settings on record: 22Rv1, 48 h.
Test [1] has as its system HCT-116. Briefly: Induction of apoptosis in human HCT-116 assessed as late apoptotic cells at 1 uM incubated for 24 hrs Annexin V FITC/PI double staining based flow cytometry (reference value: 8.02 %). The format is functional. In general terms: In flow cytometry, cells or beads pass a laser one at a time.
The test system of test [2] is HCT-116. Briefly: Induction of apoptosis in human HCT-116 assessed as early apoptotic cells at 1 uM pretreated with Z-VAD-FMK for 30 mins followed by compound addition and measured after 24 hrs by Annexin V-FITC/PI double staining based flow cytometry (reference value: 0.95%). Format: functional.
The subject of test [3] is HCT-116. Briefly: Induction of apoptosis in human HCT-116 assessed as late apoptotic cells at 2 uM pretreated with Z-VAD-FMK for 30 mins followed by compound addition and measured after 24 hrs by Annexin V-FITC/PI double staining based flow cytometry (reference value: 7.43%). Format: functional.
For test [4], the system named is HCT-116. Description: Induction of autophagy in human HCT-116 cells transfected with mRFP-GFP-LC3B assessed as appearance of RFP aggregate clusters in cytoplasm at 0.5 to 2 uM incubated for 24 hrs by DAPI staining based fluorescence confocal microscopic analysis. The format is functional, cell-based. To be noted: dose 0.5-2 µM.
Test [5] concerns HCT-116. Description: Induction of autophagy in ATG7 knockout human HCT-116 cells assessed as increase in LC3-II expression at 1 to 2 uM incubated for 24 hrs by Western blot analysis. Format: functional, cell-based. To be noted: dose 1-2 µM. (Immunoblotting shows a protein as a band on a membrane.)

Activity calls are given as the source filed them. The rule behind the calls is not given here.

For `CCN(CC)CCCNCc1cc2c3ccccc3n(CCCc3ccccc3)c2c(CNCCCN(CC)CC)n1`, the IC50 is 3.81 µM in the test with BGC-823, 2.65 µM in the test on HT-29 and 4.08 µM with CWR22R. The Activity with HCT-116 [1] is recorded as 11.2%; in the test on HCT-116 [2], 1.75%; in the test on HCT-116 [3] it was 13.7%. Also, in the test with HCT-116 [4], the outcome was Active. Also, the outcome in the test on HCT-116 [5] was inactive.
